# Data taken from patent publication US20260070945A1, “MACROCYCLIC IMMUNOMODULATORS” (Bristol-Myers Squibb Company, priority 2022, published 2026).
# *1 amine or outer side, *2 acyl side, *3 side chain or, on linkers, in order; H or OH if unused. Where a SMILES comes first, the peptide text is derived from it. Bridges are numbered along the chain shown (N, C = ends). [ ]: non-standard residue; d: D form. The star is where a group is joined. ξ: configuration not given here. Phe(3-CF3) = N[C@@H](Cc1cccc(C(F)(F)F)c1)C(=O)O; Phe(4-COOH) = N[C@@H](Cc1ccc(C(=O)O)cc1)C(=O)O; Bip = N[C@@H](Cc1ccc(-c2ccccc2)cc1)C(=O)O; Phe(3-Me) = Cc1cccc(C[C@H](N)C(=O)O)c1; γGlu = O=C(O)[C@H](CCC(=O)[*:2])N[*:1]; Abu(3S-NH2) = C[C@H](N)[C@H](N)C(=O)O; NH(CH2)12COOH = O=C(O)CCCCCCCCCCCCN*; Val(3-OH) = CC(C)(O)[C@H](N)C(=O)O; 4Pal = N[C@@H](Cc1ccncc1)C(=O)O; Cha = N[C@@H](CC1CCCCC1)C(=O)O; Cit = NC(=O)NCCC[C@H](N)C(=O)O; Ile(3ξ) = CCC(C)[C@H](N)C(=O)O; Thr(3ξ) = CC(O)[C@H](N)C(=O)O; 12Ado = NCCCCCCCCCCCC(=O)O; Carboxymethyl = O=C(O)C*; NMeA = CN[C@@H](C)C(=O)O; Orn = NCCC[C@H](N)C(=O)O; Aun = NCCCCCCCCCCC(=O)O; Dab = NCC[C@H](N)C(=O)O; Dap = NC[C@H](N)C(=O)O; AEEA = NCCOCCOCC(=O)O
# Target: T1, PD-1/PD-L1 interaction (PE-labeled human PD-L1-Ig binding to Jurkat cell line over-expressing human PD-1) (Homo sapiens, UniProt Q15116)
# T1 construct: expressed in transfected cells; host or cells: Jurkat
# Assay: Jurkat-PD-1 Cell Binding High-Content Screening Assay (CBA)
# Conditions: Jurkat-hPD-1 cells, PE-labeled PD-L1-Ig 20 nM final; read-out: Jurkat HPD1 PDL1 IC50
# How it was run: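 Cells 8×10^3/well, DMEM + 10% FCS; cpd 2 h, 37 °C; PE–PD-L1-Ig 20 nM final, 1 h; PFA fix + Hoechst 33342, 3× dPBS wash; high-content imager.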
# T1 sequence (Q15116 25-288): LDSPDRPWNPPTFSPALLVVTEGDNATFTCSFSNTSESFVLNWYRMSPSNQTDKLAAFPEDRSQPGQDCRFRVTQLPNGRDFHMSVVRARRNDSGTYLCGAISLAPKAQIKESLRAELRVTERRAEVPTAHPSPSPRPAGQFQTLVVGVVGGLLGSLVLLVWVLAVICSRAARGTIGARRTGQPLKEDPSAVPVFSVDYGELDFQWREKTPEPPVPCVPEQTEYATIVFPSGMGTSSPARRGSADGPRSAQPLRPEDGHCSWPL
row,SMILES,IC50 [nM]
1,CC(=O)NCCCC[C@@H]1NC(=O)[C@H](CC2CCCCC2)NC(=O)[C@H](CCN)NC(=O)[C@@H](CC(C)C)NC(=O)[C@H](C)N(C)C(=O)[C@H](CCCNC(N)=O)NC(=O)[C@H](Cc2ccc(-c3ccccc3)cc2)NC(=O)[C@H](Cc2ccc(O)cc2)NC(=O)[C@H](Cc2cccc(C)c2)NC(=O)[C@H](CC(=O)O)NC(=O)[C@H](Cc2ccc(OCC(=O)O)cc2)NC(=O)[C@H](Cc2ccncc2)NC(=O)CSC[C@@H](C(=O)N[C@@H](CCCN)C(=O)N[C@@H](CO)C(=O)NCCCCCCCCCCCC(=O)O)NC(=O)[C@H](C(C)O)NC1=O (stereo partly drawn) [Example 2411] ({CH2CO}-[4Pal]Y(Carboxymethyl)D[Phe(3-Me)]Y[Bip][Cit][NMeA][dL][Dab][Cha]K(Ac)[Thr(3ξ)]C[Orn]S[12Ado]-OH; thioether N-14),38.1
2,CC(=O)NCCCC[C@@H]1NC(=O)[C@H](Cc2ccc(-c3ccccc3)cc2)NC(=O)[C@H](C(C)C)NC(=O)[C@H](Cc2cccc(C)c2)NC(=O)[C@H](CC(=O)O)NC(=O)[C@H](Cc2ccc(OCC(=O)O)cc2)NC(=O)[C@H](CCCNC(=N)N)NC(=O)CSC[C@@H](C(=O)N[C@@H](CCN)C(=O)NCCCCCCCCCCC(=O)O)NC(=O)[C@H](C(C)O)NC(=O)[C@H](C(C)C)NC(=O)[C@H](CC2CCCCC2)NC(=O)[C@H](CCN)NC(=O)[C@@H](CC(C)C)NC(=O)[C@H](C)N(C)C1=O (stereo partly drawn) [Example 2380] ({CH2CO}-RY(Carboxymethyl)D[Phe(3-Me)]V[Bip]K(Ac)[NMeA][dL][Dab][Cha]V[Thr(3ξ)]C[Dab][Aun]-OH; thioether N-14),14.6
3,CCC(C)[C@@H]1NC(=O)[C@H](Cc2ccc(-c3ccccc3)cc2)NC(=O)[C@H](C(C)C)NC(=O)[C@H](Cc2cccc(C)c2)NC(=O)[C@H](CC(=O)O)NC(=O)[C@H](Cc2ccc(OCC(=O)O)cc2)NC(=O)[C@H](C(C)O)NC(=O)CSC[C@@H](C(=O)NCCOCCOCC(=O)NCCCCCCCCCCC(=O)O)NC(=O)[C@H](C(C)O)NC(=O)[C@H](C(C)C)NC(=O)[C@H](CC2CCCCC2)NC(=O)[C@H](CCN)NC(=O)[C@@H](CC(C)C)NC(=O)[C@H](C)N(C)C1=O (stereo partly drawn) [Example 2328] ({CH2CO}-[Thr(3ξ)]Y(Carboxymethyl)D[Phe(3-Me)]V[Bip][Ile(3ξ)][NMeA][dL][Dab][Cha]V[Thr(3ξ)]C[AEEA][Aun]-OH; thioether N-14),19.5
4,Cc1cccc(C[C@@H]2NC(=O)[C@H](CC(=O)O)NC(=O)[C@H](Cc3ccc(OCC(=O)O)cc3)NC(=O)[C@H](CN)NC(=O)CSC[C@@H](C(=O)N[C@@H](CCN)C(=O)NCCCCCCCCCCC(=O)O)NC(=O)[C@H](CO)NC(=O)[C@H](C(C)C)NC(=O)[C@H](CC3CCCCC3)NC(=O)[C@H](CCN)NC(=O)[C@@H](CC(C)C)NC(=O)[C@H](C)N(C)C(=O)[C@H](Cc3ccc(O)cc3)NC(=O)[C@H](Cc3ccc(-c4ccccc4)cc3)NC(=O)[C@H](Cc3ccc(OCC(=O)O)cc3)NC2=O)c1 [Example 1259] ({CH2CO}-[Dap]Y(Carboxymethyl)D[Phe(3-Me)]Y(Carboxymethyl)[Bip]Y[NMeA][dL][Dab][Cha]VSC[Dab][Aun]-OH; thioether N-14),14.9
5,Cc1cccc(C[C@@H]2NC(=O)[C@H](CC(=O)O)NC(=O)[C@H](Cc3ccc(OCC(=O)O)cc3)NC(=O)[C@H]([C@@H](C)O)NC(=O)CSC[C@@H](C(=O)N[C@@H](CCCN)C(=O)NCCOCCOCC(=O)NCCCCCCCCCCC(=O)O)NC(=O)[C@H](CO)NC(=O)[C@H](C(C)C)NC(=O)[C@H](CC3CCCCC3)NC(=O)[C@H](CC(N)=O)NC(=O)[C@@H](CC(C)C)NC(=O)[C@H](C)N(C)C(=O)[C@H](Cc3ccc(OCC(=O)O)cc3)NC(=O)[C@H](Cc3ccc(-c4ccccc4)cc3)NC(=O)[C@H](Cc3ccc(OCC(=O)O)cc3)NC2=O)c1 [Example 1367] ({CH2CO}-TY(Carboxymethyl)D[Phe(3-Me)]Y(Carboxymethyl)[Bip]Y(Carboxymethyl)[NMeA][dL]N[Cha]VSC[Orn][AEEA][Aun]-OH; thioether N-14),55.6

# Results, then the molecule that gave them:
row,IC50 [nM],SMILES
1,94.1,CC(C)C[C@H]1NC(=O)[C@H](C)N(C)C(=O)[C@H](CCC(N)=O)NC(=O)[C@H](Cc2ccc(-c3ccccc3)cc2)NC(=O)[C@H](Cc2ccc(C(=O)O)cc2)NC(=O)[C@H](Cc2cccc(C(F)(F)F)c2)NC(=O)[C@H](CC(=O)O)NC(=O)[C@H](Cc2ccc(OCC(=O)O)cc2)NC(=O)[C@H](Cc2ccc(C(=O)O)cc2)NC(=O)CSC[C@@H](C(=O)N[C@@H](CCN)C(=O)NCCOCCOCC(=O)N[C@@H](CCC(=O)NCCOCCOCC(=O)NCCCCCCCCCCCCC(=O)O)C(=O)O)NC(=O)[C@H](CCC(=O)O)NC(=O)[C@H](C(C)C)NC(=O)[C@H](CC2CCCCC2)NC(=O)[C@H](CCN)NC1=O [Example 1183] ({CH2CO}-[Phe(4-COOH)]Y(Carboxymethyl)D[Phe(3-CF3)][Phe(4-COOH)][Bip]Q[NMeA][dL][Dab][Cha]VEC[Dab][AEEA][γGlu][AEEA]-{NH(CH2)12COOH}; thioether N-14)
2,18.9,CC(C)C[C@H]1NC(=O)[C@H](C)N(C)C(=O)[C@H](CCCNC(N)=O)NC(=O)[C@H](Cc2ccc(-c3ccccc3)cc2)NC(=O)[C@H](Cc2ccc(C(=O)O)cc2)NC(=O)[C@H](Cc2cccc(C(F)(F)F)c2)NC(=O)[C@H](CC(=O)O)NC(=O)[C@H](Cc2ccc(OCC(=O)O)cc2)NC(=O)[C@H]([C@H](C)N)NC(=O)CSC[C@@H](C(=O)N[C@@H](CCN)C(=O)NCCCCCCCCCCCCC(=O)O)NC(=O)[C@H](Cc2c[nH]cn2)NC(=O)[C@H](C(C)(C)O)NC(=O)[C@H](CC2CCCCC2)NC(=O)[C@H](CCN)NC1=O [Example 1197] ({CH2CO}-[Abu(3S-NH2)]Y(Carboxymethyl)D[Phe(3-CF3)][Phe(4-COOH)][Bip][Cit][NMeA][dL][Dab][Cha][Val(3-OH)]HC[Dab]-{NH(CH2)12COOH}; thioether N-14)
3,11.8,CC(C)C[C@@H]1NC(=O)[C@H](Cc2c[nH]c3ccccc23)NC(=O)[C@H](CC(=O)O)NC(=O)[C@H](Cc2ccc(OCC(=O)O)cc2)NC(=O)[C@H](Cc2ccc(OCC(=O)O)cc2)NC(=O)CSC[C@@H](C(=O)N[C@@H](CCCN)C(=O)NCCOCCOCC(=O)NCCCCCCCCCCC(=O)O)NC(=O)[C@H](CO)NC(=O)[C@H](C(C)C)NC(=O)[C@H](CC2CCCCC2)NC(=O)[C@H](CCN)NC(=O)[C@@H](CC(C)C)NC(=O)[C@H](C)N(C)C(=O)[C@H](C(C)C)NC(=O)[C@H](Cc2ccc(-c3ccccc3)cc2)NC1=O [Example 2130] ({CH2CO}-Y(Carboxymethyl)Y(Carboxymethyl)DWL[Bip]V[NMeA][dL][Dab][Cha]VSC[Orn][AEEA][Aun]-OH; thioether N-14)

# Same assay, conditions: PE-labeled PD-L1-Ig 20 nM final, Jurkat-hPD-1 cells; read-out: Jurkat HPD1 PDL1 IC50
row,IC50 [nM],SMILES
1,34.9,CC(C)C[C@@H]1NC(=O)[C@H](Cc2c[nH]c3ccccc23)NC(=O)[C@H](CC(=O)O)NC(=O)[C@H](Cc2ccc(OCC(=O)O)cc2)NC(=O)[C@H](C(C)O)NC(=O)CSC[C@@H](C(=O)NCCOCCOCC(=O)NCCCCCCCCCCC(=O)O)NC(=O)[C@H](C(C)O)NC(=O)[C@H](C(C)C)NC(=O)[C@H](CC2CCCCC2)NC(=O)[C@H](CCN)NC(=O)[C@@H](CC(C)C)NC(=O)[C@H](C)N(C)C(=O)[C@H](CCCNC(N)=O)NC(=O)[C@H](Cc2ccc(-c3ccccc3)cc2)NC1=O (stereo partly drawn) [Example 2437] ({CH2CO}-[Thr(3ξ)]Y(Carboxymethyl)DWL[Bip][Cit][NMeA][dL][Dab][Cha]V[Thr(3ξ)]C[AEEA][Aun]-OH; thioether N-14)
